Experimental findings from EP0525360B1, “Novel phenylacetamide derivatives and processes for the preparation thereof” (KOREA RESEARCH INSTITUTE OF CHEMICAL TECHNOLOGY, priority 1991, dated 1993) are described below.

Read-outs that look alike come from different tables or passages of the source.

Series [1] has as its system KTC-ICR mice. The series can be described thus: acetic acid induced writhing test. It counts as in vivo. To be noted: Mus musculus; oral; 0.9% acetic acid i.p. 60 minutes later; writhings during 10 minutes; mice 20 to 25g; Examples 1 to 32. As for the experimental part: (§1) The KTC-ICR mice derived from Charles River Breeding Laboratory in the United States and provided by Experimental Animal Laboratory of Korea Research Institute of Chemical Technology were used as test animals. […] They were tested after having been adjusted to the testing environment for a week. Food and water were given freely; and illumination was maintained on a 12-hour cycle.
(§2) Experiments were performed in two ways: that is, the acetic acid induced writhing test and the phenyl-1,4-benzoquinone(PBQ) induced writhing test.
Solutions for the acetic acid induced writhing test were prepared by dissolving one of the end products prepared in Examples […] in a saline solution containing 1% by weight of Tween 80 to have a concentration of 5mg/mℓ and diluting it serially with the saline solution. The test solutions were administered orally in a dose of 0.3mℓ per 30g of body weight, using the 5 ICR mice for each test. 60 minutes later, 0.9% acetic acid solution was administered intraperitoneally in a dose of 0.1mℓ per 30g of body weight. 3 minutes thereafter, the number of writhings generated during a period of 10 minutes due to the administration of acetic acid was measured. For comparison purpose, initially, saline solution alone was administered orally to the control group. 60 minutes thereafter, 0.9% acetic acid solution was administered intraperitoneally to the control group.
(§3) The number of writhings suffered by the test group was compared with that of the control group; and the analgesic effect was measured in terms of the percentage of inhibition of writhing(I. W.). I. W. (%) =(A - B)/(A)x 100 [formula] A : the number of writhings suffered by the control group, B : the number of writhings suffered by the test group.
(§4) These ED50 values for the test compounds are shown in the last column of Table 1.

The next series can be described thus: acute toxicity test. To be noted: mouse, in vivo, po, per os, 5 weeks old, observed for 14 days.
The test system of another series is test animals. Put plainly: Behavior analysis (side-effect or toxicity scores). It counts as in vivo. The arrangement: key to Sedation / Dyspnoea / Vasodilation / Convulsion / Salivation / Urination: behavior score; higher number = greater side effects. To be noted: behavior score; for Convulsion / Salivation / Urination: normal value 0; for Dyspnoea / Ptosis / Sedation / Vasodilation: normal value 4. From the text:
In order to monitor a harmful side-effect or toxicity of the compounds having the formula(I), various behavioral changes in the test animals were observed. […] The higher the number is, the greater the side effects are.

The test system of series [2] is KTC-ICR mice. The series can be described thus: phenyl-1,4-benzoquinone(PBQ) induced writhing test. Format: in vivo. To be noted: Mus musculus. On the procedure:
as §1, §2
Alternatively, solutions for the PBQ induced writhing test were prepared by dissolving one of the products synthesized in Examples 33 to 46 in a mixture of Tween 80, alcohol and distilled water (1:5:94); and administered orally to the 5 ICR mice for each test in a dose of 0.3mℓ per 30g of body weight. 60 minutes later, 0.02% PBQ solution was administered intraperitoneally in a dose of 0.1mℓ per 30g of body weight of the test animals. 5 minutes thereafter, at the temperature of 40°C, the number of writhings occurred during a period of 5 minutes due to the PBQ solution administered was measured. For comparison, only the mixture of Tween 80, alcohol and distilled water was administered orally to the control group; and, after 60 minutes, the PBQ solution was administered intraperitoneally to the control group in the same manner as mentioned above.
as §3, §4
A general note: In writhing tests, fewer writhes than in controls are read as antinociception.

Another series relates to mice. The series can be described thus: Tail-flick test (radiant heat). Format: in vivo. The note with it: p. o. On the procedure:
Radiant heat was applied using a beam of high-intensity light focused on a tail spot. The response time, defined as the interval between the onset of the stimulus and the tail flick, was measured electronically(to the nearest 0.1 second). The beam intensity was set at a level giving a mean control reaction time of 3.8±0.4 seconds. […] The percentage of inhibition was determined by the following equation: Inhibition(%) =(Reaction time of the treated group - Reaction time of the control group)/(Reaction time of the control group)x 100 [formula]

The mark [3] stands for this setting: oral, 0.02% PBQ i.p. 60 minutes later, writhings during 5 minutes, mice 10 to 15g, Examples 33 to 46.

For orientation: ED50 means the midpoint of the dose-response relation. Broadly, the LD50 is the dose expected to kill half of the subjects tested. `Cc1ccc(CCCNC(=O)Cc2ccc(OCCN)c(F)c2)cc1` [Example 11] displayed an ED50 in the series on KTC-ICR mice [1] of 0.01 mg/kg. The LD50 at 336 h was determined as 322 mg/kg in “acute toxicity test” (5 ICR female mice, read-out: LD50(female)) and 500 mg/kg in “acute toxicity test” (5 ICR male mice, read-out: LD50(male)).

In the series on test animals (dose 6.7mg/Kg), `Cc1ccc(CCCNC(=O)Cc2ccc(OCCN)c(N)c2)cc1C` [Example 37, N-{3-(3,4-dimethylphenyl)propyl}-4-(2-aminoethoxy)-3-aminophenylacetamide] yielded a Convulsion of 0, a Salivation of 0, a Urination of 0 and a Dyspnoea of 4. Besides, in the series on test animals (dose 6.7mg/Kg), the Ptosis came out at 4, the Sedation was determined as 4 and the Vasodilation stood at 4. Also, in the series with test animals (dose 20mg/Kg), the Convulsion was determined as 0, the Salivation amounted to 0, the Urination turned out to be 0 and the Dyspnoea is on record as 4. In the series with test animals (dose 20mg/Kg), this compound came in with a Ptosis of 5, a Sedation of 4 and a Vasodilation of 4. Besides, in the series with test animals (dose 60mg/Kg), the Convulsion was 0, the Salivation is listed as 0, the Urination stood at 0 and the Dyspnoea came to 4. In the series on test animals (dose 60mg/Kg), this compound yielded a Ptosis of 6, a Sedation of 6 and a Vasodilation of 4. For the same compound, the ED50 in the series on KTC-ICR mice [2] (setting [3]) is 22.7 mg/kg.

With `Cc1cccc(CCCNC(=O)Cc2ccc(OCCN)c(N)c2)c1` [Example 38, N-{3-(3-methylphenyl)propyl}-4-(2-aminoethoxy)-3-aminophenylacetamide], in the series on test animals (dose 6.7mg/Kg), the Convulsion is given as 0, the Salivation came to 0, the Urination is 0 and the Dyspnoea was 4. Further, in the series with test animals (dose 6.7mg/Kg), the Ptosis was found to be 4, the Sedation is listed as 4 and the Vasodilation was 4. Besides, in the series on test animals (dose 20mg/Kg), the Convulsion came to 0, the Salivation came to 0, the Urination is 0 and the Dyspnoea was determined as 4. In the series with test animals (dose 20mg/Kg), this compound yielded a Ptosis of 5, a Sedation of 4 and a Vasodilation of 4. In the series with test animals (dose 60mg/Kg), this compound yielded a Convulsion of 0, a Salivation of 0, a Urination of 0 and a Dyspnoea of 7. Also, in the series with test animals (dose 60mg/Kg), the Ptosis stood at 7, the Sedation is reported as 6 and the Vasodilation is recorded as 4. This compound gave an ED50 in the series on KTC-ICR mice [2] (setting [3]) of 22.1 mg/kg.

In the case of `NCCOc1ccc(CC(=O)NCCCc2ccc(Cl)cc2)cc1N` [Example 39, N-{3-(4-chlorophenyl)propyl}-4-(2-aminoethoxy)-3-aminophenylacetamide], in the series with test animals (dose 10mg/Kg), the Convulsion stood at 0, the Salivation turned out to be 0, the Urination stood at 0 and the Dyspnoea came to 4. Further, in the series on test animals (dose 10mg/Kg), the Ptosis was 4, the Sedation came to 4 and the Vasodilation is reported as 4. In the series with test animals (dose 25mg/Kg), this compound yielded a Convulsion of 0, a Salivation of 0, a Urination of 0 and a Dyspnoea of 4. In the series with test animals (dose 25mg/Kg), this compound registered a Ptosis of 4, a Sedation of 4 and a Vasodilation of 4. In the series with test animals (dose 50mg/Kg), this compound had a Convulsion of 0, a Salivation of 0, a Urination of 0 and a Dyspnoea of 4. For the same compound, in the series with test animals (dose 50mg/Kg), the Ptosis came to 4, the Sedation was 4 and the Vasodilation turned out to be 4. This compound gave an ED50 with KTC-ICR mice [2] (setting [3]) of 77.6 mg/kg.

`NCCOc1ccc(CC(=O)NCCCc2ccc(F)cc2)cc1N` [Example 40, N-{3-(4-fluorophenyl)propyl}-4-(2-aminoethoxy)-3-aminophenylacetamide]: in the series with test animals (dose 10mg/Kg), the Convulsion is on record as 0, the Salivation was found to be 0, the Urination is listed as 0 and the Dyspnoea was found to be 4. Also, in the series on test animals (dose 10mg/Kg), the Ptosis worked out at 4, the Sedation turned out to be 4 and the Vasodilation was determined as 4. For the same compound, in the series on test animals (dose 25mg/Kg), the Convulsion is given as 0, the Salivation came to 0, the Urination turned out to be 0 and the Dyspnoea was 4. Further, in the series on test animals (dose 25mg/Kg), the Ptosis was 4, the Sedation is 4 and the Vasodilation was 4. In the series on test animals (dose 50mg/Kg), the Convulsion is given as 0, the Salivation came to 0, the Urination is 0 and the Dyspnoea stood at 4. In the series with test animals (dose 50mg/Kg), the Ptosis worked out at 4, the Sedation was found to be 4 and the Vasodilation is listed as 4. For the same compound, the “Inhibition(%)” value in the series on mice (dose 100 mg/Kg) is recorded as 50%. The compound further returned an ED50 in the series with KTC-ICR mice [2] (setting [3]) of 37.8 mg/kg.

In the series with test animals (dose 25mg/Kg), `NCCOc1ccc(CC(=O)NCCCc2ccc(Cl)c(Cl)c2)cc1N` [Example 41, N-{3-(3,4-dichlorophenyl)propyl}-4-(2-aminoethoxy)-3-aminophenylacetamide] came in with a Convulsion of 0, a Salivation of 0, a Urination of 0 and a Dyspnoea of 4. Also, in the series with test animals (dose 25mg/Kg), the Ptosis is recorded as 4, the Sedation is 4 and the Vasodilation stood at 4. In the series on test animals (dose 50mg/Kg), this compound returned a Convulsion of 0, a Salivation of 0, a Urination of 0 and a Dyspnoea of 4. In the series on test animals (dose 50mg/Kg), this compound had a Ptosis of 4, a Sedation of 5 and a Vasodilation of 4. In addition, in the series with test animals (dose 100mg/Kg), the Convulsion was found to be 0, the Salivation stood at 0, the Urination is listed as 0 and the Dyspnoea amounted to 5. Moreover, in the series on test animals (dose 100mg/Kg), the Ptosis came out at 5, the Sedation worked out at 6 and the Vasodilation was 4. This compound also registered an ED50 with KTC-ICR mice [2] (setting [3]) of 7.18 mg/kg.

Consider `CCCCCCCC/C=C\CCCCCCCC(=O)NCc1ccc(OCCN)c(OC)c1` [NE-21610, reference compound], for which, in the series on test animals (dose 10mg/Kg), the Convulsion was 0, the Salivation came to 0, the Urination was determined as 0 and the Dyspnoea came to 4. Besides, in the series with test animals (dose 10mg/Kg), the Ptosis is 4, the Sedation was determined as 4 and the Vasodilation was found to be 4. In addition, in the series with test animals (dose 25mg/Kg), the Convulsion is recorded as 0, the Salivation came out at 0, the Urination came to 0 and the Dyspnoea is on record as 4. In the series with test animals (dose 25mg/Kg), this compound returned a Ptosis of 4, a Sedation of 4 and a Vasodilation of 4. In the series on test animals (dose 50mg/Kg), this compound registered a Convulsion of 0, a Salivation of 0, a Urination of 0 and a Dyspnoea of 4. In the series on test animals (dose 50mg/Kg), this compound had a Ptosis of 5, a Sedation of 5 and a Vasodilation of 4. Also, in the series on test animals (dose 100mg/Kg), the Convulsion was found to be 2, the Salivation amounted to 0, the Urination is listed as 0 and the Dyspnoea came to 6. In addition, in the series with test animals (dose 100mg/Kg), the Ptosis came out at 7, the Sedation was determined as 7 and the Vasodilation was found to be 4. In the series with mice (dose 200 mg/Kg), the “Inhibition(%)” value was found to be 50%. The ED50 in the series with KTC-ICR mice [2] (po, writhing test, inducer (acetic acid or PBQ) not stated for this reference) was over 300 mg/kg.
